{"source": "paper PMC5441580", "about": "“GPR40 partial agonist MK-2305 lower fasting glucose in the Goto Kakizaki rat via suppression of endogenous glucose production” (PLoS ONE, 2017)", "key": {"GK rats [1]": {"test_system": "GK rats", "experiment": "GK rat chronic efficacy, compound in feed for 20 days", "type": "in vivo", "details": "for Morning (fed) Blood Glucose: MK-2305 10 mpk in feed; for decrease in fed glucose vs. vehicle: p < 0.05; for Fasted blood glucose: second block of the table (day 14 per title), individual animals", "experimental": "At the start of the study, fed glucose was measured at 8 A.M., and animals were selected and sorted into treatment groups based on ambient glucose (n = 10/male GK group, n = 6/male WKY control group). […] Fed blood glucose, food intake, and body weights were determined on days 0, 1, 3, 7, and 14 of study at 8 A.M. On days 7 and 14, food was removed for 5 h and plasma glucose was measured. Percent inhibitions were calculated as the percent reduction of blood glucose from the average value for vehicle controls. On day 14, blood was collected from the tail vein (20 μl) after the morning glucose measurement and after 5 h fast from a subset of n = 3 rats per treatment group to determine the ambient and fasted exposure of the compounds in circulation. The blood was stored at 4°C in 0.1 M sodium monocitrate for subsequent analysis. Animals were then re-fed their respective diet treatments. On day 20 of treatment at 8 A.M., blood glucose was measured and then animals were euthanized via CO2 asphyxiation. Blood and liver tissue were sampled, processed, and stored at -80°C until analysis.\nPlasma was analyzed for triglycerides, NEFA, and HbA1C using a P Modular Roche Clinical Chemistry analyzer. Liver triglycerides were extracted as described by Bligh and Dyer, and were measured using the Infinity triglyceride assay kit (Thermo Scientific, Rockford, IL). Plasma insulin levels were measured via EIA (Mesoscale Discovery ELISA Kit, Gaithersburg MD)."}, "GK rats [2]": {"test_system": "GK rats", "experiment": "endogenous glucose production in vivo, 2H/13C dual tracer, acute treatment, GK rats", "parameters": "species or system rat", "experimental": "To evaluate whether MK-2305 treatment produced an effect on EGP in vivo, a ^2H/^13C dual tracer approach was used to calculate EGP and its contributing sources. On the day of the study, GK rats were bled via tail snip, and blood glucose was measured via glucometer. Ambient glucose was measured at 8 A.M. and used to sort animals into treatment groups (n = 8 per group). 0.9% NaCl salinated D2O (Sigma-Aldrich, St. Louis, MO) was administered to all animals via IP injection at dose volume of 20 ml/kg. Animals were then placed in clean cages and food was removed. After a 5 hour fast, blood glucose was measured and animals were dosed PO with MK-2305 at 10 mg/kg (5 ml/kg) or vehicle (0.5% methylcellulose) immediately followed by 50 mg/kg [U-^13C] glucose (Sigma-Aldrich) IP at 5 ml/kg. Blood was collected via tail snip at time points from 60–150 min post treatment to measure blood glucose as well as endogenous (^12C-glucose) and exogenous (^13C-glucose) via GCMS. Following the last tail blood collection, rats were anesthetized with isoflurane and cardiac blood was collected into K2EDTA tubes (Becton, Dickinson and Co., Franklin Lakes, NJ).\nThe serially collected blood samples were analyzed for ^13C-glucose enrichment using GC-MS analysis. The % ^13C glucose enrichments were then combined with the total glucose readings to calculate the concentration of ^13C-glucose, and these values were modeled with a two-compartment model of whole body glucose metabolism to calculate the average EGP for the period from 0–150 minutes.\nTerminal blood samples were analyzed for relative ^2H enrichment in plasma glucose using the monoacetone glucose method. Briefly, samples were extracted with 70% perchloric acid and centrifuged at 25,000 rcf for 10 min at 4°C. The supernatant was collected and the pH was adjusted to 6–8 using KOH. The samples were then lyophilized overnight. To convert plasma glucose to monoacetone glucose (MAG), acetone and concentrated sulfuric acid were added to the lyophilized samples and stirred for 4 hours at room temperature. Water was then added and the pH adjusted to 2.0 with 3M Na2CO3. Samples were stirred moderately for 18 hours at room temperature, the pH was adjusted to 7 with 3M Na2CO3, and the samples were completely dried by speed vacuum concentration. The resulting MAG samples were then extracted in hot ethyl acetate, dried overnight under a stream of N2 gas, purified using Discovery DSC-18 SPE columns (6 ml, 1 g bed weight), and freeze dried. Purified MAG samples were solubilized in 180 μl 90% acetonitrile for ^2H NMR analysis which was performed using the lock channel of a 950 MHz Bruker NMR spectrometer (David H Murdock Research Institute, Kannapolis, NC). Acquisition parameters were as follows: 90° pulse, D1 = 1 s, ^1H broadband decoupling, NS = 3600 averages, acquisition time ~ 1 hr. The ^2H NMR spectra of the MAG samples were then analyzed using in–house developed Matlab (The Mathworks Inc, Natick, MA) to model the NMR peaks with a Lorentzian line shape, and the results were used to calculate integrals for each of the seven NMR resonances in the MAG spectrum. Peaks 2, 5, and 6s were then used to calculate the relative sources of EGP (i.e. gluconeogenesis from TCA cycle substrates, gluconeogenesis from triose phosphates, and glycogenolysis) and these values were combined with the total EGP measurement to calculate absolute fluxes of glucose production."}, "[3]": {"details": "acute treatment, 10 mg/kg, individual animals"}}, "note": "Several values for one entry are separate records, joined by “and”; a condition that tells them apart may be missing. Equal entries are not always repeated."}
{"smiles": "O=C1NC(=O)C(C2CCOc3cc(Oc4ccc(C(F)(F)F)cc4Cl)ccc32)S1", "note": "(stereo not drawn) [MK-2305]", "values": [{"measurement": "Morning (fed) Blood Glucose", "setting": "GK rats [1]; Day 3, individual GK rats, 10 mg/kg", "result": "158 mg/dL and 166 mg/dL and 183 mg/dL and 172 mg/dL and 163 mg/dL and 169 mg/dL and 170 mg/dL and 167 mg/dL"}, {"measurement": "Morning (fed) Blood Glucose", "setting": "GK rats [1]; Day 7, individual GK rats, 10 mg/kg", "result": "150 mg/dL and 185 mg/dL and 138 mg/dL and 158 mg/dL and 179 mg/dL and 152 mg/dL and 224 mg/dL and 161 mg/dL"}, {"measurement": "Morning (fed) Blood Glucose", "setting": "GK rats [1]; Day 14, individual GK rats, 10 mg/kg", "result": "146 mg/dL and 143 mg/dL and 176 mg/dL and 141 mg/dL and 140 mg/dL and 169 mg/dL and 230 mg/dL"}, {"measurement": "Morning (fed) Blood Glucose", "setting": "GK rats [1]; Day 20, individual GK rats, 10 mg/kg", "result": "146 mg/dL and 140 mg/dL and 150 mg/dL and 149 mg/dL and 138 mg/dL and 145 mg/dL and 163 mg/dL and 120 mg/dL"}, {"measurement": "decrease in fed glucose vs. vehicle", "setting": "GK rats [1]; day 3, 10 mg/kg in feed, GK rats", "result": 22, "unit": "%"}, {"measurement": "decrease in fed glucose vs. vehicle", "setting": "GK rats [1]; day 3, 30 mg/kg in feed, GK rats", "result": 27, "unit": "%"}, {"measurement": "reduction in fasting blood glucose vs. vehicle", "setting": "GK rats [1]; day 7, 5 hr fast, 10 mg/kg in feed, GK rats", "result": 19, "unit": "%"}, {"measurement": "reduction in fasting blood glucose vs. vehicle", "setting": "GK rats [1]; day 7, 5 hr fast, 30 mg/kg in feed, GK rats", "result": 19, "unit": "%"}, {"measurement": "reduction in fasting blood glucose vs. vehicle", "setting": "GK rats [1]; day 14, 5 hr fast, 10 mg/kg in feed, GK rats", "result": 26, "unit": "%"}, {"measurement": "reduction in fasting blood glucose vs. vehicle", "setting": "GK rats [1]; day 14, 5 hr fast, 30 mg/kg in feed, GK rats", "result": 30, "unit": "%"}, {"measurement": "effect on circulating HbA1C levels", "setting": "GK rats [1]; day 20, GK rats, all treatment groups", "result": "significantly reduced"}, {"measurement": "effect on liver triglyceride levels", "setting": "GK rats [1]; day 20, GK rats, vs. vehicle controls", "result": "no effect"}, {"measurement": "effect on plasma non-esterified fatty acid (NEFA) levels", "setting": "GK rats [1]; day 20, either dose (10, 30 mg/kg), GK rats", "result": "no effect"}, {"measurement": "effect on fasted plasma insulin", "setting": "GK rats [1]; days 7 and 14, 5 hr fast, GK rats", "result": "no significant effects"}, {"measurement": "Fasted blood glucose", "setting": "GK rats [1]; 10mpk, 10 mg/kg", "result": "151 mg/dL and 95 mg/dL and 111 mg/dL and 128 mg/dL and 118 mg/dL and 120 mg/dL and 116 mg/dL and 138 mg/dL and 117 mg/dL"}, {"measurement": "Fasted blood glucose", "setting": "GK rats [1]; 30mpk, 30 mg/kg", "result": "112 mg/dl and 113 mg/dl and 108 mg/dl and 115 mg/dl (2×) and 126 mg/dl and 105 mg/dl and 123 mg/dl and 119 mg/dl"}, {"measurement": "Glucose Production, GNG Glycerol", "setting": "GK rats [2]; [3]", "result": "3.608 µmol/kg/min and 6.69 µmol/kg/min and 9.73 µmol/kg/min and 6.819 µmol/kg/min and 7.18 µmol/kg/min and 7.314 µmol/kg/min"}, {"measurement": "Glucose Production, GNG TCA", "setting": "GK rats [2]; [3]", "result": "22.6827 µmol/kg/min and 24.6101 µmol/kg/min and 42.0826 µmol/kg/min and 20.0832 µmol/kg/min and 26.1824 µmol/kg/min and 20.2011 µmol/kg/min"}, {"measurement": "Glucose Production, GNG Total", "setting": "GK rats [2]; [3]", "result": "26.2902 µmol/kg/min and 31.3005 µmol/kg/min and 51.8129 µmol/kg/min and 26.902 µmol/kg/min and 33.3626 µmol/kg/min and 27.5151 µmol/kg/min"}, {"measurement": "Glucose Production, Glycogenolysis", "setting": "GK rats [2]; [3]", "result": "12.8051 µmol/kg/min and 15.6084 µmol/kg/min and 16.1238 µmol/kg/min and 13.6282 µmol/kg/min and 9.977 µmol/kg/min and 16.0296 µmol/kg/min"}, {"measurement": "effect on EGP derived from glycogenolysis", "setting": "GK rats [2]; acute, 10 mg/kg PO", "result": "did not acutely affect"}, {"measurement": "EGP from gluconeogenic substrates entering as triose phosphates", "setting": "GK rats [2]; acute, 10 mg/kg PO, mean ± SEM, vehicle 8.82 ± 0.81, p < 0.05", "result": "6.90 ± 0.80", "unit": "µmol/kg/min"}, {"measurement": "EGP from gluconeogenic substrates entering at the TCA cycle", "setting": "GK rats [2]; acute, 10 mg/kg PO, mean ± SEM, vehicle 43.2 ± 4.17, p < 0.01", "result": "26.0 ± 3.36", "unit": "µmol/kg/min"}, {"measurement": "total EGP", "setting": "GK rats [2]; acute, 10 mg/kg PO, mean ± SEM, vehicle 52.0 ± 4.82, p < 0.05", "result": "32.9 ± 3.95", "unit": "µmol/kg/min"}]}
